# From the OligoGym collection
# HELM strings list units from the 5' end as sugar, base in round brackets, then linkage (d deoxyribose, r ribose, m 2'-O-methyl, p phosphodiester). Strings are as the collection lists them; they lack the last nucleoside at the 3' end of the tested compound. [moe] = 2'-O-(2-methoxyethyl) (MOE); [sp] = phosphorothioate linkage; [m5C] = 5-methylcytosine
# Target: GFAP
# Experiment: mouse, dose not given
# Settings: ASO
row,Substance,3 h FOB score
1,RNA1{[moe]([m5C])[sp].[moe](T)p.[moe](A)p.[moe](G)p.[moe](T)p.[moe]([m5C])p.d(A)[sp].d(G)[sp].d([m5C])[sp].d([m5C])[sp].d(T)[sp].d(G)[sp].d(G)[sp].d(T)[sp].d(T)[sp].d(A)[sp].[moe](G)p.[moe]([m5C])[sp].[moe]([m5C])}$$$$ (last 3' nucleoside missing),4 score 0-7
2,RNA1{[moe](A)[sp].[moe]([m5C])p.[moe](T)p.[moe](A)p.[moe](T)[sp].d([m5C])[sp].d(T)[sp].d(A)[sp].d(G)[sp].d(G)[sp].d(A)[sp].d(T)[sp].d(T)[sp].[moe](T)p.[moe](G)p.[moe](G)[sp].[moe]([m5C])}$$$$ (last 3' nucleoside missing),4 score 0-7
3,RNA1{[moe](T)[sp].[moe](T)p.[moe](G)p.[moe](T)p.d([m5C])[sp].d(T)[sp].d(T)[sp].d(T)[sp].d(A)[sp].d(T)[sp].d(T)[sp].d(T)[sp].d(T)[sp].d(T)[sp].[moe]([m5C])p.[moe]([m5C])p.[moe](T)p.[moe]([m5C])[sp].[moe](A)}$$$$ (last 3' nucleoside missing),2 score 0-7
4,RNA1{[moe](T)[sp].[moe](G)p.[moe](G)p.[moe]([m5C])p.d(A)[sp].d(G)[sp].d(T)[sp].d(A)[sp].d(T)[sp].d(T)[sp].d(A)[sp].d([m5C])[sp].d([m5C])[sp].d(T)[sp].[moe]([m5C])p.[moe](T)p.[moe](A)p.[moe]([m5C])[sp].[moe](T)}$$$$ (last 3' nucleoside missing),1 score 0-7
5,RNA1{[moe](T)[sp].[moe](T)p.[moe](G)p.[moe](A)p.[moe](G)[sp].d(A)[sp].d(T)[sp].d(A)[sp].d(T)[sp].d([m5C])[sp].d(T)[sp].d(T)[sp].d(G)[sp].d(T)[sp].d(G)[sp].[moe](A)p.[moe]([m5C])p.[moe]([m5C])[sp].[moe](T)}$$$$ (last 3' nucleoside missing),4 score 0-7
6,RNA1{[moe](A)[sp].[moe](G)p.[moe]([m5C])p.[moe](A)p.[moe](T)[sp].d(T)[sp].d(T)[sp].d(G)[sp].d(T)[sp].d([m5C])[sp].d(T)[sp].d(T)[sp].d(T)[sp].d(A)[sp].d(T)[sp].[moe](T)p.[moe](T)p.[moe](T)[sp].[moe](T)}$$$$ (last 3' nucleoside missing),1 score 0-7
7,RNA1{[moe]([m5C])[sp].[moe](G)p.[moe](T)p.[moe](A)p.[moe](T)[sp].d(T)[sp].d(G)[sp].d(T)[sp].d(G)[sp].d(A)[sp].d(G)[sp].d(G)[sp].d([m5C])[sp].d(T)[sp].d(T)[sp].[moe](T)p.[moe](T)p.[moe](G)[sp].[moe](A)}$$$$ (last 3' nucleoside missing),7 score 0-7
8,RNA1{[moe]([m5C])[sp].[moe](T)p.[moe](T)p.[moe](T)p.[moe]([m5C])[sp].d(T)[sp].d([m5C])[sp].d(T)[sp].d([m5C])[sp].d([m5C])[sp].d(T)[sp].d(G)[sp].d(T)[sp].d(T)[sp].d(T)[sp].[moe]([m5C])p.[moe](A)p.[moe](G)[sp].[moe]([m5C])}$$$$ (last 3' nucleoside missing),3 score 0-7
9,RNA1{[moe](T)[sp].[moe](A)p.[moe](G)p.[moe](T)p.d([m5C])[sp].d(A)[sp].d(G)[sp].d([m5C])[sp].d([m5C])[sp].d(T)[sp].d(G)[sp].d(G)[sp].d(T)[sp].d(T)[sp].[moe](A)p.[moe](G)p.[moe]([m5C])p.[moe]([m5C])[sp].[moe](T)}$$$$ (last 3' nucleoside missing),3 score 0-7
10,RNA1{[moe](T)[sp].[moe](T)p.[moe](T)p.[moe](A)p.[moe](T)[sp].d(T)[sp].d(T)[sp].d(T)[sp].d(T)[sp].d([m5C])[sp].d([m5C])[sp].d(T)[sp].d([m5C])[sp].d(A)[sp].d(G)[sp].[moe]([m5C])p.[moe](G)p.[moe](A)[sp].[moe]([m5C])}$$$$ (last 3' nucleoside missing),2 score 0-7
11,RNA1{[moe]([m5C])[sp].[moe](T)p.[moe](T)p.[moe](G)p.d(T)[sp].d(G)[sp].d(A)[sp].d(T)[sp].d(T)[sp].d(T)[sp].d(T)[sp].d([m5C])[sp].d([m5C])[sp].d([m5C])[sp].[moe]([m5C])p.[moe](G)p.[moe](T)p.[moe]([m5C])[sp].[moe](T)}$$$$ (last 3' nucleoside missing),0 score 0-7
12,RNA1{[moe](T)[sp].[moe]([m5C])p.[moe](T)p.[moe](G)p.[moe]([m5C])p.d([m5C])[sp].d(A)[sp].d(T)[sp].d(T)[sp].d(T)[sp].d(A)[sp].d(T)[sp].d([m5C])[sp].d(T)[sp].d(G)[sp].[moe](T)p.[moe](G)p.[moe]([m5C])[sp].[moe](T)}$$$$ (last 3' nucleoside missing),1 score 0-7
13,RNA1{[moe](G)[sp].[moe](A)p.[moe]([m5C])p.[moe]([m5C])p.[moe](T)[sp].d(G)[sp].d(T)[sp].d(G)[sp].d(A)[sp].d([m5C])[sp].d(T)[sp].d(A)[sp].d(T)[sp].d([m5C])[sp].d(T)[sp].[moe](A)p.[moe](G)p.[moe](G)[sp].[moe](A)}$$$$ (last 3' nucleoside missing),3 score 0-7
14,RNA1{[moe]([m5C])[sp].[moe](G)p.[moe](T)p.[moe]([m5C])p.[moe](A)p.[moe]([m5C])p.d(A)[sp].d(T)[sp].d(T)[sp].d([m5C])[sp].d(A)[sp].d([m5C])[sp].d(T)[sp].d(A)[sp].d(A)[sp].d(T)[sp].[moe](A)p.[moe](T)[sp].[moe](T)}$$$$ (last 3' nucleoside missing),0 score 0-7
15,RNA1{[moe]([m5C])[sp].[moe](A)p.[moe](T)p.[moe](T)p.d(T)[sp].d(G)[sp].d(T)[sp].d([m5C])[sp].d(T)[sp].d(T)[sp].d(T)[sp].d(A)[sp].d(T)[sp].d(T)[sp].[moe](T)p.[moe](T)p.[moe](T)p.[moe]([m5C])[sp].[moe]([m5C])}$$$$ (last 3' nucleoside missing),0 score 0-7
16,RNA1{[moe](A)[sp].[moe](G)p.[moe](T)p.[moe](G)p.[moe](T)[sp].d(G)[sp].d(T)[sp].d(A)[sp].d(T)[sp].d(T)[sp].d(A)[sp].d(G)[sp].d(G)[sp].d(A)[sp].d(T)[sp].[moe]([m5C])p.[moe]([m5C])p.[moe]([m5C])[sp].[moe](A)}$$$$ (last 3' nucleoside missing),5 score 0-7
